# Data: patent US12680077B2, “Generating populations of human blood and blood vessel progenitors from pluripotent stem cells” (The Board of Trustees of the Leland Stanford Junior …, priority 2020, dated 2026)
# Columns and labels:
# Format in all cases: cell-based, human
# [1] = tested on: hPSC-derived day-3 trunk artery cells; assay: Differentiation of hPSC-derived day-3 trunk artery cells into hemogenic endothelium / HSC-like cells (qPCR, flow cytometry); conditions: 24 hours, OSM and LIF withheld together
# Description: (§1) FIG. 4: Efficient generation of trunk artery and hemogenic endothelium from hPSCs within 3 and 6 days, respectively. A) Cartoon of the strategy to generate trunk artery, hemogenic endothelium and HSC-like cells. B) Retinoic acid (RA) signaling induces HOXA1-5 genes in hPSC-derived trunk artery cells; day 1 hPSC-derived primitive streak cells were differentiated into trunk artery cells over the course of 48 hours, in the presence or absence of an RA agonist (TTNPB). C) Flow cytometry (left) and qPCR (right) of hPSC-derived trunk artery cells; for the qPCR data, gene expression is normalized for each gene to undifferentiated hPSCs (gene expression levels in hPSCs=1.0); as a negative control, hPSC-derived artery cells (white bar, generated in the absence of RA agonist) is shown. D) hPSC-derived day-3 trunk artery cells were differentiated into hemogenic endothelium for 24 hours in the complete hemogenic endothelium medium (Forskolin, SB505124, OSM and LIF), or in media where either Forskolin was withheld; SB505124 was withheld; or both OSM and LIF were withheld.
# FIG. 12: Optimizing the generation of trunk artery, hemogenic endothelium and HSC-like cells from hPSCs. A) Retinoic acid (RA) signaling induces HOXA1-5 genes in hPSC-derived trunk artery cells; day 1 hPSC-derived primitive streak cells were differentiated into trunk artery cells over the course of 48 hours, in the presence or absence of RA agonists (ATRA, AM580 or TTNPB) on day 2 alone (for 24 hours), day 3 alone (for 24 hours) or day 2-3 interval (for 48 hours) B) hPSC-derived trunk artery cells can be generated in defined conditions on a defined extracellular matrix (ECM); hPSCs were plated on Geltrex (an undefined ECM matrix); bulk laminin; or recombinant vitronectin or laminin-511. C) hPSCs were differentiated into day-3 artery cells (without RA agonist) or day-3 trunk artery cells (with RA agonist); and then were further differentiated over the course of 6 further days into day-9 HSC-like cells. […]
# (§2) Quantitative PCR. […]
# [2] = tested on: day 6 hPSC-derived hemogenic endothelium; assay: Differentiation of day 6 hemogenic endothelium into day 9 HSC-like cells (qPCR, flow cytometry); conditions: for expression of GATA1 and CD45RA: SR1 and UM171 applied together, days 6-9; for formation of hPSC-derived HSC-like cells: presence vs absence of both UM171 and SR1, 3 days, flow cytometry for CD45+ CD45RA- on day 9
# Description: FIG. 13: Optimizing the generation of, and characterizing, hPSC-derived HSC-like cells. […] B) qPCR was performed during hPSC differentiation into HSC-like cells every 24 hours; gene expression was normalized such that undifferentiated hPSCs=1.0. […] D) Flow cytometry strategy to purify i) CD144^+ CD45^+ CD45RA^− hPSC-derived day-9 HSC-like cells and ii) CD34^+ CD90^+ cord blood HSPCs vs. CD34^+ CD90^− cord blood non-HSCs (expanded for 3 days ex vivo prior to FACS sorting) for transcriptional analysis.
# Day 6-9 (HSC-like cell induction, 72 hours [Step 5b]). Day 6 hemogenic endothelium cells were briefly washed (DMEM/F12, Thermo Fisher) and then differentiated towards HSC-like cells in CDM3 media supplemented with Forskolin (10 μM), IL1β (5 ng/mL, R&D Systems), LIF (20 ng/mL), OSM (10 ng/mL), SB505124 (2 μM), SR1 (750 nM, Cellagen Technology) and UM171 (75 nM, ApexBio) for 72 hours. HSC-like cell induction media was refreshed every 24 hours.
# Flow cytometry. Undifferentiated and differentiated hPSCs were dissociated by incubation in TrypLE Express (Gibco) for 5 minutes at 37° C. Subsequently, dissociated cells in TrypLE Express were diluted 1:10 in DMEM/F12 and centrifuged (pelleted) at 500 g for 5 minutes. Each cell pellet was resuspended in FACS buffer (PBS+1 mM EDTA [Invitrogen]+2% v/v FBS [Atlanta Bio]+1% Penicillin/Streptomycin [Gibco]) supplemented with fluorescently-conjugated primary antibodies, and antibody staining occurred for 30 minutes on ice protected from light. After staining, cells were washed twice with FACS buffer and resuspended in 200 μL FACS buffer with DAPI (1:10,000, Biolegend) for live/dead discrimination. Samples were run on a Beckman Coulter CytoFlex analyzer (Stanford Stem Cell Institute FACS Core). For data analysis, cells were gated based on forward and side scatter with height and width used for doublet discrimination. Subsequently, live cells that were negative for DAPI were gated for all marker analyses and calculations of population frequency.
# Quantitative PCR. Undifferentiated or differentiated hPSCs were lysed in 350 μL of RLT Plus Buffer and RNA was extracted using the RNeasy Plus Mini Kit (Qiagen) according to the manufacturer's protocol. 300 ng of total RNA was reverse transcribed into cDNA for qPCR using the High-Capacity cDNA Reverse Transcription Kit (Applied Biosystems) according to the manufacturer's protocol. qPCR was performed in 384-well format as previously described (Loh et al., 2016), using gene-specific forward and reverse primers on a QuantStudio 5 qPCR machine (Thermo Fisher). Expression of all genes was normalized to the levels of the reference gene YWHAZ.
# [3] = tested on: day 1 hPSC-derived primitive streak cells; assay: Differentiation of day 1 primitive streak into trunk artery cells with RA agonists (qPCR, flow cytometry); conditions: for HOXA1-HOXA5 expression by day 3: RA agonist for 48 hours (days 2-3), qPCR; for formation of CD144+ CD43+ blood progenitors by day 9: RA agonist on days 2-3, then 6 further days of differentiation
# Description: as §1
# FIG. 12: Optimizing the generation of trunk artery, hemogenic endothelium and HSC-like cells from hPSCs. A) Retinoic acid (RA) signaling induces HOXA1-5 genes in hPSC-derived trunk artery cells; day 1 hPSC-derived primitive streak cells were differentiated into trunk artery cells over the course of 48 hours, in the presence or absence of RA agonists (ATRA, AM580 or TTNPB) on day 2 alone (for 24 hours), day 3 alone (for 24 hours) or day 2-3 interval (for 48 hours) B) hPSC-derived trunk artery cells can be generated in defined conditions on a defined extracellular matrix (ECM); hPSCs were plated on Geltrex (an undefined ECM matrix); bulk laminin; or recombinant vitronectin or laminin-511. C) hPSCs were differentiated into day-3 artery cells (without RA agonist) or day-3 trunk artery cells (with RA agonist); and then were further differentiated over the course of 6 further days into day-9 HSC-like cells. […] G) qPCR of hPSC differentiation into trunk arteries (day 3) and their conversion into hemogenic endothelium (day 6); qPCR data are normalized such that for each gene, expression levels in undifferentiated hPSCs=1.0.
# Day 2 (trunk dorsal lateral mesoderm induction, 24 hours [Step 2b]). Day 1 mid primitive streak cells were briefly washed (DMEM/F12, Thermo Fisher) and then differentiated towards dorsal lateral mesoderm in CDM2 media supplemented with BMP4 (40 ng/mL), GDC-0941 (2.5 μM, Cellagen Technology), Forskolin (10 μM, Tocris), SB-505124 (2 μM, Tocris), VEGF (100 ng/mL, R&D Systems), XAV939 (1 μM, Tocris), AA2P (200 μg/mL) and TTNPB (0.5 nM) for 24 hours (i.e., the same media as dorsal lateral mesoderm induction, with the addition of TTNPB). […]
# as §2
# [4] = tested on: day 1 hPSC-derived primitive streak; assay: Dorsal lateral mesoderm induction from day 1 primitive streak (qPCR on day 2); conditions: day 2 of differentiation, 24 hours
# Description: FIG. 1: Efficient generation of human primitive streak and dorsal lateral mesoderm from hPSCs. A) Chronology of artery and vein development in vivo within mouse embryos (top) and in vitro from human pluripotent stem cells (hPSCs; bottom). B) Efficient generation of MIXL1^+ mid primitive streak within 24 hours of hPSC differentiation, as assayed by flow cytometry of a MIXL1-GFP reporter hESC line C) In vivo identification of candidate dorsal lateral mesoderm: from a scRNAseq profile of the E7.0 mouse embryo, Hand1^+ Elf5^− lateral mesoderm was computationally identified and then sub-clustered; marker genes shown superimposed on t-SNE (top) and in violin plots (below [CPM: counts per million]). […]
# as §2
molecule,measurement,setting,value
"Cc1cccc(-c2[nH]c(C(C)(C)C)nc2-c2ccc3c(c2)OCO3)n1 [SB505124, 2-[4-(1,3-Benzodioxol-5-yl)-2-(1,1-dimethylethyl)-1H-imidazol-5-yl]-6-methyl-pyridine]",RUNX1 expression by day 4 upon individual withdrawal of the agent from hemogenic endothelium medium,[1],reduced
CC(C)n1cnc2c(NCCc3ccc(O)cc3)nc(-c3csc4ccccc34)nc21 [SR1],expression of GATA1 and CD45RA,[2],decreased
same,formation of hPSC-derived HSC-like cells,[2],enhanced
C/C(=C\c1ccc(C(=O)O)cc1)c1ccc2c(c1)C(C)(C)CCC2(C)C [TTNPB],HOXA1-HOXA5 expression by day 3,[3],enhanced
same,formation of CD144+ CD43+ blood progenitors by day 9,[3],promote
Cn1nnc(-c2ccc3c(c2)[nH]c2nc(Cc4ccccc4)nc(NC4CCC(N)CC4)c23)n1 (centres unmarked) [UM171],expression of GATA1 and CD45RA,[2],decreased
same,formation of hPSC-derived HSC-like cells,[2],enhanced
AM580,HOXA1-HOXA5 expression by day 3,[3],enhanced
same,formation of CD144+ CD43+ blood progenitors by day 9,[3],promote
IL1: inflammatory signal IL1β,blood formation in vitro,[2]; inflammatory signal added days 6-9,modestly promoted
LIF: GP130 agonist,RUNX1 expression by day 4 upon individual withdrawal of the agent from hemogenic endothelium medium,[1],reduced
VEGF,"expression of SCL, LMO2 and FLI1 (dorsal lateral mesoderm specification)",[4],upregulated
"BMP: BMP agonist; BMP4 used in the experiments (protein, UniProt P12644 293-408, looked up) Bone morphogenetic protein 4: SPKHHSQRARKKNKNCRRHSLYVDFSDVGWNDWIVAPPGYQAFYCHGDCPFPLADHLNSTNHAIVQTLVNSVNSSIPKACCVPTELSAISMLYLDEYDKVVLKNYQEMVVEGCGCR","expression of SCL, LMO2 and FLI1 (dorsal lateral mesoderm specification)",[4],upregulated
"OSM: GP130 agonist (protein, UniProt P13725 26-221, looked up) Oncostatin-M: AAIGSCSKEYRVLLGQLQKQTDLMQDTSRLLDPYIRIQGLDVPKLREHCRERPGAFPSEETLRGLGRRGFLQTLNATLGCVLHRLADLEQRLPKAQDLERSGLNIEDLEKLQMARPNILGLRNNIYCMAQLLDNSDTAEPTKAGRGASQPPTPTPASDAFQRKLEGCRFLHGYHRFMHSVGRVFSKWGESPNRSRR",RUNX1 expression by day 4 upon individual withdrawal of the agent from hemogenic endothelium medium,[1],reduced
